Results taken from PMC6668024 (Journal of medicinal chemistry, 2018).

Legend:
[1] = target: T1, Topo I (Homo sapiens, UniProt P11387); experiment: Topo I inhibitory activity assay; assay type: biochemical
T1 sequence (P11387 1-765): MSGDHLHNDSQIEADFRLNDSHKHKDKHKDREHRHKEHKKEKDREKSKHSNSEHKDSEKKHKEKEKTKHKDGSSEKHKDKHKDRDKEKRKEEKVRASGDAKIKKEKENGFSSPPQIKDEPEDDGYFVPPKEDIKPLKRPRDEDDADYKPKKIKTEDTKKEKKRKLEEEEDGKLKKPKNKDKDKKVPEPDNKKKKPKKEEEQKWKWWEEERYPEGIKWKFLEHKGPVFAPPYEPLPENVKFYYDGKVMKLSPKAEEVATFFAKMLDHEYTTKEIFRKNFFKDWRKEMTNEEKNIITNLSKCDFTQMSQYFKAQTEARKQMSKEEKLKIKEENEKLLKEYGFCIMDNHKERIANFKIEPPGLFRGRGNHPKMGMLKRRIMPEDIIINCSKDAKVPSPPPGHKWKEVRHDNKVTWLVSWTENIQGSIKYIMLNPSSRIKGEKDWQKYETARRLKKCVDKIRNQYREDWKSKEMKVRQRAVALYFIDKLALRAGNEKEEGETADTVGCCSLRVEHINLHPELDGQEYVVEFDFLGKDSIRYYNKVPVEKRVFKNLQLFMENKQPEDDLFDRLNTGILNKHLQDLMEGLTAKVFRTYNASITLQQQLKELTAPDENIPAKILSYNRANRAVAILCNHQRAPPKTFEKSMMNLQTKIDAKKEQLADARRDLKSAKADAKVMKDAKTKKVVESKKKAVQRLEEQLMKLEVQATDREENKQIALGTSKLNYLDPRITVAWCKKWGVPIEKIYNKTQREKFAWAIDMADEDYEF

[2] = target: T2, Topo I-DNA cleavage complex (Homo sapiens, UniProt P11387); experiment: Topo I-mediated DNA cleavage assay; assay type: biochemical; settings: EB-containing gel; for Topo I-mediated DNA cleavage (amount of nicked DNA): 100 μM or 50 μM
T2 sequence (P11387 1-765): T1 sequence (P11387 1-765)

[3] = physchem
[4] = test system: TNF-α; experiment: TNF-α in serum, LPS sepsis model; assay type: in vivo, C57BL/6 mice; settings: serum 72 h after LPS
[5] = In vivo pharmacokinetics, plasma levels by LC-MS/MS; design: species or system male C57BL/6 mice; settings: for parent compound (4 or 3) in plasma after i.v. dosing of the ester: 2 mg/kg intravenously
[6] = for body weight of treated mice: HepG-2 xenograft mice, treatment for 30 days, doses as in Figure 5
[7] = test system: IL-6; experiment: IL-6 in serum, LPS sepsis model; assay type: in vivo, C57BL/6 mice; settings: serum 72 h after LPS
[8] = test system: MDA-MB-231; experiment: MTT cytotoxicity assay, MDA-MB-231; assay type: cell-based, human; settings: MDA-MB-231, MTT, 48 h
[9] = test system: BEL-7402; experiment: MTT cytotoxicity assay, BEL-7402; assay type: cell-based, human; settings: BEL-7402, MTT, 48 h
[10] = test system: SK-N-SH; experiment: MTT cytotoxicity assay, SK-N-SH; assay type: cell-based, human; settings: 48 h
[11] = test system: HepG-2; experiment: MTT cytotoxicity assay, HepG-2; assay type: cell-based, human; settings: HepG-2, MTT, 48 h
[12] = Aqueous solubility; settings: parental compounds
[13] = test system: KB; experiment: MTT cytotoxicity assay, KB; assay type: cell-based, human; settings: 48 h
[14] = test system: QGY-7703; experiment: MTT cytotoxicity assay, QGY-7703; assay type: cell-based, human; settings: QGY-7703, MTT, 48 h
[15] = test system: SMMC-7721; experiment: MTT cytotoxicity assay, SMMC-7721; assay type: cell-based, human; settings: SMMC-7721, MTT, 48 h
[16] = test system: SGC-7901; experiment: MTT cytotoxicity assay, SGC-7901; assay type: cell-based, human; settings: SGC-7901, MTT, 48 h
[17] = test system: MCF-7; experiment: MTT cytotoxicity assay, MCF-7; assay type: cell-based, human; settings: MCF-7, MTT, 48 h
[18] = test system: MGC80-3; experiment: MTT cytotoxicity assay, MGC80-3; assay type: cell-based, human; settings: MGC80-3, MTT, 48 h
[19] = test system: A549; experiment: MTT cytotoxicity assay, A549; assay type: cell-based, human; settings: 48 h
[20] = 50 μM and 100 μM, EB-free gel (Figure 3a, 3b)

For `CC[C@@]1(O)C(=O)OCc2c1cc1n(c2=O)Cc2cc3ccccc3nc2-1` [CPT, Camptothecin, reference compound], the “Topo I inhibitory activity” value [1, 20] was “can inhibit Topo I activity” and the “Topo I-mediated DNA cleavage (amount of nicked DNA)” value [2] was “can increase the amount of nicked DNA”.
For `CC[C@@]1(O)C(=O)OCc2c1cc1n(c2=O)Cc2cc3c(ccc4oc(C(C)C)nc43)nc2-1` [Compound 4, (S)-8-Ethyl-8-hydroxy-2-isopropyl-8H-oxazolo[4,5-f]pyrano[3',4':6,7]indolizino[1,2-b]quinoline-9,12(11H,14H)-dione], the “Topo I inhibitory activity” value ([1]; 50 μM, EB-free gel (Figure 4)) was “weak inhibitor” and the solubility [3] was < 2 µg/mL.
In the case of `CC[C@@]1(OC(=O)CNC(=O)CCC(=O)O)C(=O)OCc2c1cc1n(c2=O)Cc2cc3c(ccc4oc(C(C)C)nc43)nc2-1` [Compound 9, (S)-4-((2-((8-Ethyl-2-isopropyl-9,12-dioxo-9,11,12,14-tetrahydro-8H-oxazolo[4,5-f]pyrano[3',4':6,7]indolizno[1,2-b]quinolin-8-yl)oxy)-2-oxoethyl)amino)-4-oxobutanoic acid], the “expression of TNF-α in mouse serum” value [4] is reported as “suppressed”, the “parent compound (4 or 3) in plasma after i.v. dosing of the ester” value ([5]; mice) is reported as “not detected” and the “concentration in plasma through oral administration” value ([5]; single oral administration, mice) is reported as “extremely low”. For the same compound, the “Topo I inhibitory activity” value [1, 20] was “weak inhibition”, the “Topo I-mediated DNA cleavage (amount of nicked DNA)” value [2] was “can increase the amount of nicked DNA” and the “body weight of treated mice” value [6] was “no major influence on body weight”. The “survival of xenograft mice on oral dosing” value ([6]; daily oral dose 5 mg/kg) was “most mice failed to reach the end point” and the “expression of IL-6 in mouse serum” value [7] was “suppressed”.
With `CC[C@@]1(OC(=O)CNC(=O)CCC(=O)O)C(=O)OCc2c1cc1n(c2=O)Cc2cc3c4c(ccc3nc2-1)OC(C(C)C)NC4=O` (stereo partly drawn) [Compound 11, 4-((2-(((9S)-9-Ethyl-3-isopropyl-1,10,13-trioxo-1,2,3,9,10,12,13,15-octahydro-[1,3]oxazino[5,6-f]pyrano[3',4':6,7]indolizino[1,2-b]quinolin-9-yl)oxy)-2-oxoethyl)amino)-4-oxobutanoic acid] the “expression of TNF-α in mouse serum” value [4] was “suppressed”, the “parent compound (4 or 3) in plasma after i.v. dosing of the ester” value ([5]; mice) was “very low concentration” and the “concentration in plasma through oral administration” value ([5]; mouse, in vivo, po) was “extremely low”. For the same compound, the “Topo I inhibitory activity” value [1, 20] was “almost inactive”, the “Topo I-mediated DNA cleavage (stabilization of cleavage complex)” value ([2]; 50 μM) was “failed to stabilize Topo I-DNA cleavage complex” and the “body weight of treated mice” value [6] was “no major influence on body weight”. For the same compound, the “side effects, pathological anatomy of viscera” value ([6]; oral administration compared with the i.v. dosage) was “increases the occurrence of gastrointestinal flatulence” and the “expression of IL-6 in mouse serum” value [7] was “suppressed”.
In the case of `CC[C@@]1(O)C(=O)OCc2c1cc1n(c2=O)Cc2cc3c(CN(C)C)c(O)ccc3nc2-1` [Topotecan, reference compound], the “Topo I-mediated DNA cleavage (amount of nicked DNA)” value [2] is reported as “can increase the amount of nicked DNA”.
With “(9S)-9-Ethyl-9-hydroxy-3-isopropyl-2,3-dihydro-[1,3]oxazino[5,6-f]pyrano[3',4':6,7]indolizino[1,2-b]quinoline-1,10,13(9H,12H,15H)-trione [Compound 3]” the IC50 [8] was 1320 nM, the IC50 [9] was > 10000 nM and the “Topo I inhibitory activity” value ([1]; 50 μM, EB-free gel (Figure 4)) was “high”. The IC50 [10] was 325 nM, the IC50 [11] was 1110 nM and the aqueous solubility [12] was < 2 µg/mL. The IC50 [13] was 9760 nM, the IC50 [14] was > 10000 nM and the IC50 [15] was > 10000 nM. For the same compound, the IC50 [16] was > 10000 nM, the IC50 [17] was 10800 nM and the IC50 [18] was 390 nM. For the same compound, the IC50 [19] was 2170 nM.
